Source: patent US8273875B2, “High performance luminescent compounds” (University of Notre Dame du Lac, priority 2009, dated 2012)

Assay: Photobleaching of biotinylated fluorophores on avidin-coated magnetic particles, epifluorescent microscope
Assay type: physicochemical
Settings: bound to 1.3 μm avidin-coated magnetic particles, constant excitation, images every 30 seconds
Protocol: FIG. 6 illustrates a photobleaching profile of biotinylated fluorophores, in accordance with various embodiments.
In one specific, non-limiting example, the photobleaching of commercially available biotin-4-carboxyfluorescein (CF-biotin), and biotin-squaraine rotaxane (SQR-biotin) was examined by measuring the half-life of each of the probes. The dyes were incubated in excess with 1.3 μm magnetic particles coated in avidin. Following the incubation, the particles were washed of any unbound fluorophore, and the samples were then imaged on an epifluorescent microscope. The samples remained under constant excitation and images were captured every 30 seconds. Using ImageJ software, a region of interest (ROI) was drawn around the imaged magnetic particles and the mean pixel intensity was measured for each image.

photobleaching profile (fluorescence intensity versus time): dramatic photobleaching
Substance: biotin-4-carboxyfluorescein [CF-biotin]
